Source: US20120122860A1, “SOLID FORMS OF SULFONAMIDES AND AMINO ACIDS” (Plexxikon, Inc., priority 2009, published 2012)

How the values were obtained:
Fms = Fms (Homo sapiens, UniProt P07333); assay: Kinase activity assay, Fms
Kdr = Kdr (Homo sapiens, UniProt P35968); assay: Kinase activity assay, Kdr
TEC = target: T1, TEC (Homo sapiens, UniProt P42680); assay: Kinase activity assay, TEC
T1 sequence (P42680 1-631): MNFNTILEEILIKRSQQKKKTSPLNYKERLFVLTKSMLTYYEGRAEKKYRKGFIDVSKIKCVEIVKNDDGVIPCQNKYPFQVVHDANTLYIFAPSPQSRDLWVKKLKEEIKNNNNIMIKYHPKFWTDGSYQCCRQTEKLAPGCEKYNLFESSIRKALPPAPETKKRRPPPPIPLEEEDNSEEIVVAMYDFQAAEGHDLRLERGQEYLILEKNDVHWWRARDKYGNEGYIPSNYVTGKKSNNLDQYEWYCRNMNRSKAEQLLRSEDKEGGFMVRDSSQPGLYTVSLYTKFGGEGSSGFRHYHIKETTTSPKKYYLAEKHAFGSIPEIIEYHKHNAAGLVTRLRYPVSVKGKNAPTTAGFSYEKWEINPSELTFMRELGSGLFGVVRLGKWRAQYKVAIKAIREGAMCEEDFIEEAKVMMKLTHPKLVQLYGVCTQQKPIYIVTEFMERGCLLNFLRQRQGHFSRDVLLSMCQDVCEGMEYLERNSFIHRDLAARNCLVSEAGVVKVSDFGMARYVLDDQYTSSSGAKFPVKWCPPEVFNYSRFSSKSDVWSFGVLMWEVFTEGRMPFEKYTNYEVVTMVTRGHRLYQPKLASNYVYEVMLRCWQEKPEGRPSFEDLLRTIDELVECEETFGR

Btk = Btk (Homo sapiens, UniProt Q06187); assay: Kinase activity assay, Btk
Src = Src (Homo sapiens, UniProt P12931); assay: Kinase activity assay, Src
Kit = Kit (Homo sapiens, UniProt P10721); assay: Kinase activity assay, Kit
B-Raf = B-Raf (Homo sapiens, UniProt P15056); assay: Kinase activity assay, B-Raf; format: biochemical; settings: read-out: activity toward kinase B-Raf, IC50
B-Raf V600E = B-Raf V600E (Homo sapiens, UniProt P15056, V600E); assay: Kinase activity assay, B-Raf V600E; format: biochemical; settings: read-out: activity toward kinase B-Raf V600E, IC50

Measured: IC50

Chain of B-Raf V600E (P15056 whole entry V600E): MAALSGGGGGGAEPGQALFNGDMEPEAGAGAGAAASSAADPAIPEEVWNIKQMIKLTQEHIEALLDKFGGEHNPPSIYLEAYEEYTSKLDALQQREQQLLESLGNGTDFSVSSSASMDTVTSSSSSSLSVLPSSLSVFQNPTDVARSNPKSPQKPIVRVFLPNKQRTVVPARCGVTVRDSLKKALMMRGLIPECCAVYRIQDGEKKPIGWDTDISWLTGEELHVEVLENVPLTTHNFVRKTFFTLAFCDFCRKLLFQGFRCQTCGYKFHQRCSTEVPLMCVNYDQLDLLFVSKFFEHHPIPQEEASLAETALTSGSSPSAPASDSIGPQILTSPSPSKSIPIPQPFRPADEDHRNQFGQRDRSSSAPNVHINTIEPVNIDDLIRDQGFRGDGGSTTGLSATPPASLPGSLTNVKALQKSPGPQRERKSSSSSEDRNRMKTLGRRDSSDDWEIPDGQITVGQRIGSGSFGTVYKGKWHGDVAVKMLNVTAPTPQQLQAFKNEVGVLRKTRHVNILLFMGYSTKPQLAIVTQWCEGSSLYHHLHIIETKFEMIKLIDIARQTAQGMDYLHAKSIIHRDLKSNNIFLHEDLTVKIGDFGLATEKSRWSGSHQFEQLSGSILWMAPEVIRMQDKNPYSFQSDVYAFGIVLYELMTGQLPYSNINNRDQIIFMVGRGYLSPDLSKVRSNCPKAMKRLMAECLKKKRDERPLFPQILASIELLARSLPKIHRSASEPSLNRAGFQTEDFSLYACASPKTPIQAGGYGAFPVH
Chain of Btk (Q06187 whole entry): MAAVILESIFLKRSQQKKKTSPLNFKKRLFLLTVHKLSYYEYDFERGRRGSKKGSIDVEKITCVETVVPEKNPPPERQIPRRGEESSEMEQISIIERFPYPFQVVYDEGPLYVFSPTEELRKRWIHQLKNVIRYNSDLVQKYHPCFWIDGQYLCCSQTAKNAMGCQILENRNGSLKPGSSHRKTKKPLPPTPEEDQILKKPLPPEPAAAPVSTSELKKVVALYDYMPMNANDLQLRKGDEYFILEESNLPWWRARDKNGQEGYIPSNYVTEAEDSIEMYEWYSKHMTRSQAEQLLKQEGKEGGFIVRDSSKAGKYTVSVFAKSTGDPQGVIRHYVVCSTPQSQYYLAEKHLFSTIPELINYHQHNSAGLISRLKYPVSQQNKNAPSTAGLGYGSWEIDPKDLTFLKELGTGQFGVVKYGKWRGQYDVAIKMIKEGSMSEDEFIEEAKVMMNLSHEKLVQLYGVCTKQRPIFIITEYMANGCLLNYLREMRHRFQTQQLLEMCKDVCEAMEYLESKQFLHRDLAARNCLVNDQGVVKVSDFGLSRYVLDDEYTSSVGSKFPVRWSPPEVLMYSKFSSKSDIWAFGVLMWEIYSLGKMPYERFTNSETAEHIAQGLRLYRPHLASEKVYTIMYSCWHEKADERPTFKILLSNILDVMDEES
Chain of Kit (P10721 26-976): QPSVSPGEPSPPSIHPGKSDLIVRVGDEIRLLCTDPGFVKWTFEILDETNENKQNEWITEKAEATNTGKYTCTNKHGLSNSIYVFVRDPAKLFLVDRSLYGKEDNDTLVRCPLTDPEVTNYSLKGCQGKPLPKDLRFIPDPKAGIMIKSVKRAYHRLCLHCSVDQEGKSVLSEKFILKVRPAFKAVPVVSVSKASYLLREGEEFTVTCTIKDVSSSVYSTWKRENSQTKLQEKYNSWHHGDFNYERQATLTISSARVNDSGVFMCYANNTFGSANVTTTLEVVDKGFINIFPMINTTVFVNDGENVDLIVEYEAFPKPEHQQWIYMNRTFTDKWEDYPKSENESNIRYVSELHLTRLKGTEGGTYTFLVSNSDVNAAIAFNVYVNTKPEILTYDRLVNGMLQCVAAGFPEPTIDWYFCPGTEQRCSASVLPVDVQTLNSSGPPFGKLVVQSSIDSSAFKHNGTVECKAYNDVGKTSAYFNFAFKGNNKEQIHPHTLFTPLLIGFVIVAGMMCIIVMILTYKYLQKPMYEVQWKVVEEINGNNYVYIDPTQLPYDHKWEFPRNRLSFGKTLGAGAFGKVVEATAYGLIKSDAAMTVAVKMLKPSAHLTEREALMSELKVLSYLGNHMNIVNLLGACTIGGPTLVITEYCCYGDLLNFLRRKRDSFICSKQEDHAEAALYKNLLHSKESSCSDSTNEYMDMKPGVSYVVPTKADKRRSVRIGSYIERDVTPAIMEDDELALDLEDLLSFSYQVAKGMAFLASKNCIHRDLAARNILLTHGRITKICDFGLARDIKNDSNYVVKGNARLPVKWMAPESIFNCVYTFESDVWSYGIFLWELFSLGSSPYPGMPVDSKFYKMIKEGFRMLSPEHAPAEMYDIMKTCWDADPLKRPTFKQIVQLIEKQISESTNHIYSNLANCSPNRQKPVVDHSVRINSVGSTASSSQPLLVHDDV
Chain of B-Raf (P15056 whole entry): as the sequence (P15056 whole entry V600E) above, with E600V counted along it
Chain of Src (P12931 whole entry): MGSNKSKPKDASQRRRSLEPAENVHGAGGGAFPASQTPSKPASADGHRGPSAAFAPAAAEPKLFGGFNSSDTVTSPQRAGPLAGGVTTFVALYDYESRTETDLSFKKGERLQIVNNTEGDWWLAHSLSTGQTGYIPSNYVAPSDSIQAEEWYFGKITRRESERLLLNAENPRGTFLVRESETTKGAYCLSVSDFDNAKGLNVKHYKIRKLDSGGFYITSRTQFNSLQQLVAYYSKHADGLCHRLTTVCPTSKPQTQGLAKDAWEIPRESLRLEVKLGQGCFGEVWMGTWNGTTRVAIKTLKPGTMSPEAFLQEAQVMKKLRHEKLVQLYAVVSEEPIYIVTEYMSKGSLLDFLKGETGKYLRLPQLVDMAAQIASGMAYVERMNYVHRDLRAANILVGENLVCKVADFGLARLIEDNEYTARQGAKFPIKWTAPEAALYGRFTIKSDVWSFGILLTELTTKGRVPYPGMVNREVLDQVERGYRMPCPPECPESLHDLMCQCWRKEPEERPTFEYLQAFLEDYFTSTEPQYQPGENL
Chain of Fms (P07333 20-972): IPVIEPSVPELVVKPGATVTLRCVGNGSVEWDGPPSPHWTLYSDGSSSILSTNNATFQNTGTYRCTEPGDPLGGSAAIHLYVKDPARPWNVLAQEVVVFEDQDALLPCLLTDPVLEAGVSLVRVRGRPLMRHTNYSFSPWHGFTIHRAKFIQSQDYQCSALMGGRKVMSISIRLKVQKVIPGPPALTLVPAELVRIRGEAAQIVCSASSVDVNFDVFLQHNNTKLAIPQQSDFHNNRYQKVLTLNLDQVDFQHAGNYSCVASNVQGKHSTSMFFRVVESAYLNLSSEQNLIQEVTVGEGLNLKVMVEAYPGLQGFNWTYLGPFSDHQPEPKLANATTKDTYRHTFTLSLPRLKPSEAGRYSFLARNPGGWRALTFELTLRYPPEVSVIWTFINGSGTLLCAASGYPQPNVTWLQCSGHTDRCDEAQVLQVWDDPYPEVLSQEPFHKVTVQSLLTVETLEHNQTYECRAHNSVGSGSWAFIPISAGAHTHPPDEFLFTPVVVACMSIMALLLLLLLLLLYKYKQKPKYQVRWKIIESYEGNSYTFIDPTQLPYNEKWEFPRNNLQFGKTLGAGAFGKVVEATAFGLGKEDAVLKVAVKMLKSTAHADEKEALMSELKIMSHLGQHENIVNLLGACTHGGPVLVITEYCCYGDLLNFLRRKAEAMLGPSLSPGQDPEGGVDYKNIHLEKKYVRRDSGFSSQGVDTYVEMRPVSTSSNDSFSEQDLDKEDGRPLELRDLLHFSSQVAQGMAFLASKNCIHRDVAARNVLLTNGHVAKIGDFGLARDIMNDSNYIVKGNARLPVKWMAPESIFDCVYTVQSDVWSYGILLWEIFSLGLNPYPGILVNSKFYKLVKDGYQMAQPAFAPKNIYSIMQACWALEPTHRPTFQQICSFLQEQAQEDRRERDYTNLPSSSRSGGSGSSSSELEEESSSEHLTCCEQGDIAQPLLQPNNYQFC

CCCS(=O)(=O)Nc1ccc(F)c(C(=O)c2c[nH]c3ncc(-c4cnn(CCN5CCOCC5)c4)cc23)c1F [P-2177, Propane-1-sulfonic acid (2,4-difluoro-3-{5-[1-(2-morpholin-4-yl-ethyl)-1H-pyrazol-4-yl]-1H-pyrrolo[2,3-b]pyridine-3-carbonyl}-phenyl)-amide]
≤ 10 µM: all assays above

O=C(c1cc(NS(=O)(=O)c2cccc(F)c2)ccc1F)c1c[nH]c2ncccc12 [P-2120, 3-Fluoro-N-[4-fluoro-3-(1H-pyrrolo[2,3-b]pyridine-3-carbonyl)-phenyl]-benzenesulfonamide]
not listed: Src | B-Raf
≤ 10 µM: all other assays above

Cn1cc(-c2cnc3[nH]cc(C(=O)c4cccc(NS(=O)(=O)c5cccc(F)c5)c4)c3c2)cn1 [P-2136, 3-Fluoro-N-{3-[5-(1-methyl-1H-pyrazol-4-yl)-1H-pyrrolo[2,3-b]pyridine-3-carbonyl]-phenyl}-benzenesulfonamide]
not listed: Src | B-Raf
≤ 10 µM: all other assays above

CCCS(=O)(=O)Nc1cccc(C(=O)c2c[nH]c3ncc(-c4cnn(C)c4)cc23)c1 [P-2454, Propane-1-sulfonic acid {3-[5-(1-methyl-1H-pyrazol-4-yl)-1H-pyrrolo[2,3-b]pyridine-3-carbonyl]-phenyl}-amide]
not listed: Src | B-Raf
≤ 10 µM: all other assays above

Cn1cc(-c2cnc3[nH]cc(C(=O)c4c(F)ccc(NS(=O)(=O)C5CC5)c4F)c3c2)cn1 [P-2352, Cyclopropanesulfonic acid {2,4-difluoro-3-[5-(1-methyl-1H-pyrazol-4-yl)-1H-pyrrolo[2,3-b]pyridine-3-carbonyl]-phenyl}-amide]
≤ 10 µM: all assays above

Cn1cc(-c2cnc3[nH]cc(C(=O)c4cccc(NS(=O)(=O)c5cccc(C(F)(F)F)c5)c4)c3c2)cn1 [P-2131, N-{3-[5-(1-Methyl-1H-pyrazol-4-yl)-1H-pyrrolo[2,3-b]pyridine-3-carbonyl]-phenyl}-3-trifluoromethyl-benzenesulfonamide]
not listed: Src | B-Raf
≤ 10 µM: all other assays above

O=C(c1cc(NS(=O)(=O)N2CCCCC2)ccc1F)c1c[nH]c2ncc(Cl)cc12 [P-2468, Piperidine-1-sulfonic acid [3-(5-chloro-1H-pyrrolo[2,3-b]pyridine-3-carbonyl)-4-fluoro-phenyl]-amide]
not listed: Src | B-Raf
≤ 10 µM: all other assays above

CCS(=O)(=O)Nc1ccc(F)c(C(=O)c2c[nH]c3ncc(-c4cnn(C)c4)cc23)c1F [P-2271, Ethanesulfonic acid {2,4-difluoro-3-[5-(1-methyl-1H-pyrazol-4-yl)-1H-pyrrolo[2,3-b]pyridine-3-carbonyl]-phenyl}-amide]
≤ 10 µM: all assays above

CCCS(=O)(=O)Nc1ccc(F)c(C(=O)c2c[nH]c3ncc(-c4ccc(NC(C)=O)cc4)cc23)c1F [P-2161, N-(4-{3-[2,6-Difluoro-3-(propane-1-sulfonylamino)-benzoyl]-1H-pyrrolo[2,3-b]pyridin-5-yl}-phenyl)-acetamide]
not listed: B-Raf
≤ 10 µM: all other assays above
